Patent US7888329B2, “Substituted aryl piperidinylalkynyladenosines as A2AR agonists” (PGxHealth, LLC, priority 2006, dated 2011)
Like-named read-outs stand apart in the source and are kept apart here.

Assays:
human A1 AR = target: T1, human A1 AR (Homo sapiens, UniProt P30542); test: Radioligand competition binding with 125I-ABA, membranes of CHO K1 cells stably expressing the receptor; conditions: Ki derived from IC50, class symbols
T1 construct: expressed in transfected cells; membranes
T1 sequence (P30542 1-326): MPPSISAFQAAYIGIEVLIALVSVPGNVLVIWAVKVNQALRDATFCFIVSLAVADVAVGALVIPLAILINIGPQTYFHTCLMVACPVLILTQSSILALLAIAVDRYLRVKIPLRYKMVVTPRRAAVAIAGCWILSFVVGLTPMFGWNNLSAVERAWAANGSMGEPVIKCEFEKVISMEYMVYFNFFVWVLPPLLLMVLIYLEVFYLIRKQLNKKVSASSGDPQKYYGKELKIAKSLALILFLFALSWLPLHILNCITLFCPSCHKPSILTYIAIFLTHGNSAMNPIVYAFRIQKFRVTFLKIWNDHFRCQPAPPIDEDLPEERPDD

human A3 AR = target: T2, human A3 AR (Homo sapiens, UniProt P0DMS8); test: Radioligand competition binding with 125I-ABA, membranes of HEK 293 cells stably expressing the receptor; conditions: Ki derived from IC50, class symbols
T2 construct: expressed in transfected cells; membranes
T2 sequence (P0DMS8 1-318): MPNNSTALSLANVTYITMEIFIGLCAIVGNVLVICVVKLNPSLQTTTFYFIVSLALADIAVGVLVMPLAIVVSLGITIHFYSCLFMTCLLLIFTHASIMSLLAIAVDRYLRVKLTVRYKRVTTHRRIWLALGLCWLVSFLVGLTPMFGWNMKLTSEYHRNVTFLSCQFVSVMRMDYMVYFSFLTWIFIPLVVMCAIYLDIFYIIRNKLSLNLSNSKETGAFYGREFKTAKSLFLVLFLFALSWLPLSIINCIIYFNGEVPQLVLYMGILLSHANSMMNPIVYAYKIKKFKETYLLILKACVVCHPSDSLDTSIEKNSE
Experimental: (§1) Cell culture and membrane preparation. Sf9 cells were cultured in Grace's medium supplemented with 10% fetal bovine serum, 2.5 μg/ml amphotericin B and 50 μg/ml gentamycin in an atmosphere of 50% N2/50% O2. Viral infection was performed at a density of 2.5×10^6 cells/mL with a multiplicity of infection of two for each virus used. Infected cells were harvested 3 days post-infection and washed twice in insect PBS (PBS pH 6.3). Cells were then resuspended in lysis buffer (20 mM HEPES pH 7.5, 150 mM NaCl, 3 mM MgCl2, 1 mM α-mercaptoethanol (BME), 5 μg/mL leupeptin, 5 μg/mL pepstatin A, 1 μg/mL aprotinin, and 0.1 mM PMSF) and snap frozen for storage at −80° C. Cells were thawed on ice, brought to 30 mL total volume in lysis buffer, and burst by N2 cavitation (600 psi for 20 minutes). A low-speed centrifugation was performed to remove any unlysed cells (1000×g for 10 minutes), followed by a high-speed centrifugation (17,000×g for 30 minutes). The pellet from the final centrifugation was homogenized in buffer containing 20 mM HEPES pH 8, 1100 mM NaCl, 1% glycerol, 2 μg/mL leupeptin, 2 μg/mL pepstatin A, 2 μg/mL Aprotinin, 0.1 mM PMSF, and 10 μM GDP using a small glass homogenizer followed by passage through a 26 gauge needle. Membranes were aliquoted, snap frozen in liquid N2, and stored at −80° C. Membranes from cells stably expressing the human A1 AR (CHO K1 cells) or A3 AR (HEK 293 cells) were prepared as described (Robeva et al., 1996).
Radioligand Binding Assays. Radioligand binding to recombinant human A2A receptors in Sf9 cell membranes was performed using either the radiolabeled agonist, ^125I-APE (Luthin et al., 1995) or the radiolabeled antagonist, ^125I-ZM241385 (^125I-ZM). To detect the high affinity, GTPγS-sensitive state of A1 and A3 AR, we used the agonist, ^125I-ABA (Linden et al., 1985; Linden et al., 1993). Binding experiments were performed in triplicate with 5 μg (A2A) or 25 μg (A1 and A3) membrane protein in a total volume of 00.1 mL HE buffer (20 mM HEPES and 1 mM EDTA) with 1 U/mL adenosine deaminase and 5 mM MgCl2 with or without 50 μM GTPγS. Membranes were incubated with radioligands at room temperature for three hours (for agonists) or two hours (for antagonists) in Millipore Multiscreen® 96-well GF/C filter plates and assays were terminated by rapid filtration on a cell harvester (Brandel, Gaithersburg, Md.) followed by 4×150 μl washes over 30 seconds with ice cold 10 mM Tris-HCl, pH 7.4, 10 mM MgCl2. Nonspecific binding was measured in the presence of 50 μM NECA. Competition binding assays were performed as described (Robeva et al., 1996) using 0.5-1 nM ^125I-APE, ^125I-ZM241385, or ^125I-ABA. […] The Ki values for competing compound binding to a single site were derived from IC50 values with correction for radioligand and competing compound depletion as described previously (Linden, 1982).

[1] = system: Purified human neutrophils; test: Luminol enhanced chemiluminescence (neutrophil oxidative activity), fMLP stimulated; format: cell-based
Excerpt: Chemiluminescence Methods: Luminol enhanced chemiluminescence, a measure of neutrophil oxidative activity, is dependent upon both superoxide production and mobilization of the granule enzyme myeloperoxidase. The light is emitted from unstable high-energy oxygen species such as hypochlorous acid and singlet oxygen generated by activated neutrophils.
Purified human neutrophils (2×10^6/ml) suspended in Hanks balanced salt solution containing 0.1% human serum albumin (HA), adenosine deaminase (1 U/mL) and rolipram (100 nM) were incubated (37 C) in a water bath for 15 min with or without rhTNF (10 U/ml). Following incubation 100 µL aliquots of the PMN were transferred to wells (White walled clear bottom 96 well tissue culture plates Costar #3670; 2 wells/condition) containing […] and luminol (final concentration 100M) with or without adenosine agonist (final agonist concentrations 0.01-1000 nM). The plate was incubated 5 min (37 C) and then fMLP (50 l in HA; final concentration […]) was added to all wells.
Peak chemiluminescence was determined with a Victor 1420 Multilabel Counter in the chemiluminescence mode using the Wallac Workstation software. Data are presented as peak chemiluminescence as percent of activity in the absence of an adenosine agonist. The EC50 was determined using PRISM software. All compounds were tested with PMNs from three separate donors.

[2] = target: T3, recombinant human A2A receptors (Homo sapiens, UniProt P29274); test: Radioligand competition binding with 125I-APE or 125I-ZM241385, Sf9 cell membranes; conditions: 125I-APE or 125I-ZM241385, Sf9 membranes; class symbols
T3 construct: expressed in transfected cells; host or cells: Sf9 insect cells infected with virus; membranes
Experimental: as §1, with “C.” for “C. Membranes from cells stably expressing the human A1 AR (CHO K1 cells) or A3 AR (HEK 293 cells) were prepared as described (Robeva et al., 1996).”
Radioligand Binding Assays. […] Binding experiments were performed in triplicate with 5 μg (A2A) or 25 μg (A1 and A3) membrane protein in a total volume of 00.1 mL HE buffer (20 mM HEPES and 1 mM EDTA) with 1 U/mL adenosine deaminase and 5 mM MgCl2 with or without 50 μM GTPγS. Membranes were incubated with radioligands at room temperature for three hours (for agonists) or two hours (for antagonists) in Millipore Multiscreen® 96-well GF/C filter plates and assays were terminated by rapid filtration on a cell harvester (Brandel, Gaithersburg, Md.) followed by 4×150 μl washes over 30 seconds with ice cold 10 mM Tris-HCl, pH 7.4, 10 mM MgCl2. Nonspecific binding was measured in the presence of 50 μM NECA.

[3] = Homo sapiens, Neutrophil, read-out: Functional
[4] = EC50 of peak chemiluminescence, human PMN, rolipram 100 nM, fMLP, three donors, class symbols, read-out: Functional

T3 sequence (P29274 whole entry): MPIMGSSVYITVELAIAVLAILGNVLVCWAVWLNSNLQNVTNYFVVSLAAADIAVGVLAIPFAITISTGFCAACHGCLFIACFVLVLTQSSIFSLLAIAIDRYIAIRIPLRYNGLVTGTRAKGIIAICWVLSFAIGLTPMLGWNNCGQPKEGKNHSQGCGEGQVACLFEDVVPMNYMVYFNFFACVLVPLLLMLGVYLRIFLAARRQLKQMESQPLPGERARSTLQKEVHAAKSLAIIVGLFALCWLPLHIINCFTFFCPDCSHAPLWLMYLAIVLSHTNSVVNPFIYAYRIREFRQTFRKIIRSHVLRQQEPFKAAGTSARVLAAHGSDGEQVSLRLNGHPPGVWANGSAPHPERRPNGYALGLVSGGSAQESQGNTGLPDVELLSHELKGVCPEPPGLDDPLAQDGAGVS

Row | Compound | Ki (human A1 AR) [nM] | Ki (human A3 AR) [nM] | EC50 ([1]; Homo sapiens, Neutrophil, read-out: Functional (nM)) [nM] | Ki [2] [nM] | EC50 [1, 3] [nM] | EC50 [1, 4] [nM]
1 | CCNC(=O)[C@H]1O[C@@H](n2cnc3c(N)nc(CCCC4CCN(C(=O)Oc5ccc(NO)cc5)CC4)nc32)[C@@H](O)C1O (stereo partly shown) [Compound 37] | < 100 | < 100 | < 10 | < 1 |  | 
2 | Nc1nc(C#CCC2CCN(C(=O)OCc3ccc([N+](=O)[O-])cc3)CC2)nc2c1ncn2[C@@H]1O[C@H](C(=O)NC2CC2)C(O)[C@@H]1O (stereo partly shown) [Compound 18, N-Cyclopropyl 2-{3-[1-(4-nitrobenzloxycarbonyl)-4-piperidinyl]-1-propyn-1-yl}adenosine-5′-uronamide] | < 100 | < 100 |  | < 1 | < 1 | 
3 | N=C(Oc1ccc(F)cc1)N1CCC(CC#Cc2nc(N)c3ncn([C@@H]4O[C@H](C(=O)NC5CC5)[C@@H](O)[C@H]4O)c3n2)CC1 [Compound 41, N-Cyclopropyl 2-{3-[1-(4-fluorophenyloxycarboxymidyl)-4-piperidinyl]-1-propyn-1-yl}adenosine-5′-uronamide] | < 100 | > 100 |  | < 10 |  | < 10
4 | Cc1ccc(OC(=O)N2CCC(CC#Cc3nc(N)c4ncn([C@@H]5O[C@H](C(=O)NC6CC6)[C@@H](O)[C@H]5O)c4n3)CC2)cc1C [Compound 47, N-Cyclopropyl 2-{3-[1-(3,4-dimethylphenoxycarbonyl)-4-piperidinyl]-1-propyn-1-yl}adenosine-5′-uronamide] | < 100 | < 100 |  | < 1 |  | < 1
5 | CCNC(=O)[C@H]1O[C@@H](n2cnc3c(N)nc(C#CCC4CCN(C(=O)Oc5ccc(Cl)cc5)CC4)nc32)[C@@H](O)C1O (stereo partly shown) [Compound 26, N-Ethyl 2-{3-[1-(4-chlorophenyloxycarbonyl)-4-piperidinyl]-1-propyn-1-yl}adenosine-5′-uronamide] | < 100 | < 10 |  | < 1 | < 1 | 
6 | Nc1nc(C#CCC2CCN(C(=O)Oc3ccc(F)cc3)CC2)nc2c1ncn2[C@@H]1O[C@H](CO)[C@@H](O)[C@H]1O [Compound 11, 2-{3-[1-((4-Fluorophenoxy)carbonyl)piperidin-4-yl]propyn-1-yl}adenosine] | < 100 | < 100 |  | < 1 | < 10 | 
7 | Nc1nc(C#CCC2CCN(C(=O)Nc3ccc(Cl)cc3)CC2)nc2c1ncn2[C@@H]1O[C@H](CO)C(O)[C@@H]1O (stereo partly shown) [Compound 45] | < 100 | < 100 |  | < 10 | > 100 | 
8 | Nc1nc(C#CCC2CCN(C(=O)OCCOCc3ccccc3)CC2)nc2c1ncn2[C@@H]1O[C@H](CO)C(O)[C@@H]1O (stereo partly shown) [Compound 7, 2-{3-[1-((2-Benzyloxy)ethoxycarbonyl)piperidin-4-yl]propyn-1-yl}adenosine] | < 100 | < 100 |  | < 1 | < 10 | 
9 | Cc1ccc(OC(=O)N2CCC(CC#Cc3nc(N)c4ncn([C@@H]5O[C@H](CO)[C@@H](O)[C@H]5O)c4n3)CC2)cc1 [Compound 29, 2-{3-[1-((4-Methyl)phenoxycarbanoyl)piperidin-4-yl]propyn-1-yl}adenosine] | < 100 | < 100 |  | < 1 | < 10 | 
10 | Nc1nc(C#CCC2CCN(C(=O)Oc3cccc(C(F)(F)F)c3)CC2)nc2c1ncn2[C@@H]1O[C@H](C(=O)NC2CC2)C(O)[C@@H]1O (stereo partly shown) [Compound 3, N-Cyclopropyl 2-{3-[1-(3-(trifluoromethyl)phenoxycarbonyl)-4-piperidinyl]-1-propyn-1-yl}adenosine-5′-uronamide] | < 100 | < 100 |  | < 1 | < 10 | 
11 | Nc1nc(C#CCC2CCN(C(=O)Oc3ccc(F)c(F)c3)CC2)nc2c1ncn2[C@@H]1O[C@H](CO)[C@@H](O)[C@H]1O [Compound 54, 2-{3-[1-((3,4-Difluoro)phenoxycarbanoyl)piperidin-4-yl]propyn-1-yl}adenosine] | < 100 | < 100 |  | < 1 | < 10 | 
12 | N-Cyclopropyl 2-[3-[1-(4-nitrophenoxycarbonyl) 4-propylpiperidine]}-1-carboxylate]adenosine-5′-uronamide [Compound 40] |  | > 100 |  |  |  | < 100
